From US20140323511A1, “CHEMOTHERAPEUTIC FOR INDUCING AN MSH2 DEPENDENT APOPTOTIC PATHWAY” (Wake Forest University Health Sciences, priority 2013, published 2014)

Key:
[1] = test system: HEC59+chr.2 (MSH2 proficient via chromosome transfer); experiment: Cell viability assay (CellTiter 96 Aqueous One Solution), MSH2-proficient endometrial cells; assay type: cell-based; conditions: Homo sapiens; HEC59+chr.2, drug 24 hours; graphs not reaching 50% mortality were extrapolated; NA = data did not reach below 50%, no extrapolation possible; read-out: 50IC MSH2 proficient
Method: (§1) HEC59 cells (msh2 deficient) and the paired cell line HEC59 chr. that restores the MSH2-deficiency via chromosome transfer have been extensively characterized (Umar et al., 1997). Cells were grown in standard growth media (DMEM-F12+10% FBS). Cells were plated in microtiter plates at an appropriate concentration in 100 μl media and incubated overnight. Media was replaced with media containing drug and allowed to incubate for 24 hours at indicated concentrations. Untreated cells received fresh media with vehicle only. One solution reagent (CellTiter 96)(r) Aqueous One Solution) was added to existing media (20 μl/well) and allowed to incubate 3-4 hrs. A plate reader was used to record the absorbance at 490 nm. Assays were performed at least in triplicates. Cell viability at each concentration was analyzed for IC50 values using GraphPad Prism 4™. Graphs represent mean values and standard deviations.
(§2) We next tested these new rescinnamine analogs in a well-defined cellular system with an endometrial cell line deficient (HEC59) and proficient (via chromosome transfer, HEC59+chr.2) for MSH2. […] No significant difference was detected when determining the IC50 values.

HEC59 and HEC59+chr.2 = experiment: Cell viability compared between the paired MSH2-deficient and MSH2-proficient endometrial cell lines; assay type: cell-based, human; conditions: for cell killing: endometrial cell line deficient (HEC59) and proficient (HEC59+chr.2) for MSH2, data not shown; for change of IC50 when MSH2 is present: HEC59+chr.2 vs HEC59; for change in sensitivity to MSH2: comparison of isomers, MSH2 proficient vs deficient IC50; for difference between MSH2-proficiency and deficiency (MSH2-dependence of cell killing): HEC59 vs HEC59+chr.2
Method: as §1, §2

[2] = test system: HEC59 cells (msh2 deficient); experiment: Cell viability assay (CellTiter 96 Aqueous One Solution), MSH2-deficient endometrial cells; assay type: cell-based; conditions: Homo sapiens; HEC59, drug 24 hours; graphs not reaching 50% mortality were extrapolated; NA = data did not reach below 50%, no extrapolation possible; read-out: 50IC MSH2 deficient
Method: as §1, §2

ovarian cancer cells = experiment: Overcoming resistance to cisplatin in ovarian cancer cells; assay type: cell-based; conditions: data not shown
MSH2 = conditions: previously shown (Vasilyeva 2009, 2010); cited from earlier work
SW416 or HEC59 cells = experiment: Xenograft model; assay type: in vivo, mice
Method: SW416 or HEC59 cells in PBS mixed with Matrigel (1:1; BD Biosciences) were subcutaneously injected into the flank of nude donor mice. Tumors were grown for up to 3 weeks. Mice were euthanized, tumors excised, minced into 3 mm pieces, and surgically implanted into the right flank of acceptor mice (10 per group). Isoflurane anesthesia was provided during tumor inoculation. Injection of compounds was started 3 days following tumor implantation to allow recovery from surgery. Compounds were given intraperitoneally, in a volume of 0.5 ml/mouse with a ¼ inch, 23-gauge needle in a 6 ml plastic syringe. Mice were monitored based on survival and body weight. Tumor size, measured by caliper, and body weight were monitored […] for 57 days, and the prolongation of median survival time after ip treatment determined. Any animals showing signs of distress, unnatural movements, severe loss of appetite, severe signs of hypotension, tumor size of […], or weight loss exceeding 10% before the end of the study were euthanized. Tumors were measured twice a week for each group. Tumor volume is calculated as length(mm)×width (mm)^2. Initial measurements were performed when the tumor reached 150-200 mg. Tumor weight (in mg) is calculated as tumor weight (mg)[…](length(mm) of tumor×width (mm) of tumor^2)/2.

| Structure (SMILES) | IC50 [1] [µM] | cell killing (HEC59 and HEC59+chr.2) | IC50 [2] [µM] | also measured |
| --- | --- | --- | --- | --- |
| C=CC(=O)O[C@@H]1C[C@@H]2CN3CCc4c([nH]c5cc(OC)ccc45)[C@H]3C[C@@H]2[C@H](C(=O)OC)[C@H]1OC [SA-I-03, Acryloyl Reserpate] | 20.4 | induced cell killing in the micromolar range | 20.7 | melting point: > 260 °C |
| COC(=O)c1cc(/C=C/C(=O)O[C@@H]2C[C@@H]3CN4CCc5c([nH]c6cc(OC)ccc56)[C@H]4C[C@@H]3[C@H](C(=O)OC)[C@H]2OC)ccc1OC [SA-I-012] | 48.9 |  | 50.7 |  |
| COC(=O)[C@H]1[C@H]2C[C@@H]3c4[nH]c5cc(OC)ccc5c4CCN3C[C@H]2C[C@@H](OC(=O)/C=C/c2ccc(C(=O)O)c(OC)c2)[C@@H]1OC [SA-I-013] | 1220 |  | 163 | change of IC50 when MSH2 is present (HEC59 and HEC59+chr.2): reduction in IC50 when MSH2 is present; change in sensitivity to MSH2 (HEC59 and HEC59+chr.2): ~8 fold |
| COC(=O)[C@H]1[C@H]2C[C@@H]3c4[nH]c5cc(OC)ccc5c4CCN3C[C@H]2C[C@@H](OC(=O)/C=C/c2ccc(OC)c(C(=O)O)c2)[C@@H]1OC [SA-I-015] | 84.2 |  | 89.3 |  |
| COC(=O)[C@H]1[C@H]2C[C@@H]3c4[nH]c5cc(OC)ccc5c4CCN3C[C@H]2C[C@@H](OC(=O)/C=C/c2ccc(O)c(OC)c2)[C@@H]1OC [SA-I-016] |  |  |  | difference between MSH2-proficiency and deficiency (MSH2-dependence of cell killing) (HEC59 and HEC59+chr.2): small difference between MSH2-proficiency and deficiency |
| COC(=O)[C@H]1[C@H]2C[C@@H]3c4[nH]c5cc(OC)ccc5c4CCN3C[C@H]2C[C@@H](OC(=O)/C=C/c2ccc(OC)c(OC(C)=O)c2)[C@@H]1OC [SA-I-019] |  | induced cell killing in the micromolar range | 39.3 |  |
| COC(=O)[C@H]1[C@H]2C[C@@H]3c4[nH]c5cc(OC)ccc5c4CCN3C[C@H]2C[C@@H](OC(=O)/C=C/c2ccc(OC)c(O)c2)[C@@H]1OC [SA-I-020] | 21.3 | induced cell killing in the micromolar range | 22.3 |  |
| COC(=O)[C@H]1[C@H]2C[C@@H]3c4[nH]c5cc(OC)ccc5c4CCN3C[C@H]2C[C@@H](OC(=O)/C=C/c2cc(OC)c(O)c(OC)c2)[C@@H]1OC [SA-I-027] | 54.5 | induced cell killing in the micromolar range | 47.7 |  |
| COC(=O)[C@H]1[C@H]2C[C@@H]3c4[nH]c5cc(OC)ccc5c4CCN3C[C@H]2C[C@@H](OC(=O)/C=C/c2ccc(OC)c(N)c2)[C@@H]1OC [SA-I-029] | 113 |  | 77.2 | change of IC50 when MSH2 is present (HEC59 and HEC59+chr.2): reduction in IC50 when MSH2 is present; change in sensitivity to MSH2 (HEC59 and HEC59+chr.2): ~2 fold |
| COC(=O)[C@H]1[C@H]2C[C@@H]3c4[nH]c5cc(OC)ccc5c4CCN3C[C@H]2C[C@@H](OC(=O)/C=C/c2ccc(N)c(OC)c2)[C@@H]1OC [SA-I-039] | 68.4 | induced cell killing in the micromolar range | 85.7 | difference between MSH2-proficiency and deficiency (MSH2-dependence of cell killing) (HEC59 and HEC59+chr.2): small difference between MSH2-proficiency and deficiency; change in sensitivity to MSH2 (HEC59 and HEC59+chr.2): ~2 fold |
| CCC(=O)O[C@@H]1C[C@@H]2CN3CCc4c([nH]c5cc(OC)ccc45)[C@H]3C[C@@H]2[C@H](C(=O)OC)[C@H]1OC [SA-I-058, Propionoyl Reserpate] |  |  |  | melting point: 258 °C |
| COC(=O)[C@H]1[C@H]2C[C@@H]3c4[nH]c5cc(OC)ccc5c4CCN3C[C@H]2C[C@@H](OC(=O)/C=C/c2cc(OC)c(OC)c(OC)c2)[C@@H]1OC [rescinnamine] |  |  |  | overcoming resistance to cisplatin (ovarian cancer cells): capable of overcoming resistance to cisplatin in ovarian cancer cells; induction of MSH2-dependent cell death (MSH2): capable of inducing cell death in an MSH2-dependent manner; hypotensive activity limiting the dose (SW416 or HEC59 cells): hypotensive activity of the drug prevented administration of statistically effective doses; tumor inhibition (SW416 or HEC59 cells; data not shown): significant trend toward tumor inhibition |
| COC(=O)[C@H]1[C@H]2C[C@@H]3c4[nH]c5cc(OC)ccc5c4CCN3C[C@H]2C[C@@H](OC(=O)c2cc(OC)c(OC)c(OC)c2)[C@@H]1OC [reserpine] |  |  |  | induction of MSH2-dependent cell death (MSH2): capable of inducing cell death in an MSH2-dependent manner |
